Test results: the supplement of paper PMC11368000

Assays:
Conditions in all cases: exposure time: 90 min
1518 [1] = donor line of iPSC-derived cardiomyocytes; test: POD (EC10) for decrease in total cell number (cytotoxicity) vs vehicle; higher = less potent (higher point of departure)
Method: (§1)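 Human iPSC-derived cardiomyocytes from 16 donors were exposed for 90 min at 37 °C to each PFAS at 0.1, 1, 10 and 100 µM in 0.5% DMSO, 384-well plates. Kinetic Ca2+ flux (FLIPR) and Hoechst nuclei counts were normalised to vehicle wells and fitted with a hierarchical Bayesian Hill model to give donor-specific PODs: EC05 for beat-rate increase or decrease and for decay-to-rise ratio increase (QT proxy), EC95 for peak-frequency loss (asystole), EC10 for total cell number loss. 0.03 µM is the lower bound.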

1392 [2] = donor line of iPSC-derived cardiomyocytes; test: as above
Method: as §1

1434 [3] = donor line of iPSC-derived cardiomyocytes; test: as above
Method: as §1

30145 [4] = donor line of iPSC-derived cardiomyocytes; test: as above
Method: as §1

20032 = donor line of iPSC-derived cardiomyocytes; test: POD (EC95) for loss of peak frequency (asystole) vs vehicle; higher = less potent (higher point of departure)
Method: as §1

30171 = donor line of iPSC-derived cardiomyocytes; test: as above
Method: as §1

1535 = donor line of iPSC-derived cardiomyocytes; test: as above
Method: as §1

1518 [5] = test: as above
Method: as §1

11235 = donor line of iPSC-derived cardiomyocytes; test: as above
Method: as §1

1392 [6] = test: as above
Method: as §1

1309 = donor line of iPSC-derived cardiomyocytes; test: as above
Method: as §1

1083 = donor line of iPSC-derived cardiomyocytes; test: as above
Method: as §1

1516 = donor line of iPSC-derived cardiomyocytes; test: as above
Method: as §1

1565 = donor line of iPSC-derived cardiomyocytes; test: as above
Method: as §1

20084 = donor line of iPSC-derived cardiomyocytes; test: as above
Method: as §1

1368 = donor line of iPSC-derived cardiomyocytes; test: as above
Method: as §1

1434 [7] = test: as above
Method: as §1

1531 = donor line of iPSC-derived cardiomyocytes; test: as above
Method: as §1

1118 = donor line of iPSC-derived cardiomyocytes; test: as above
Method: as §1

30145 [8] = test: as above
Method: as §1

Row | Compound | POD vs vehicle 1518 [1] [µM] | POD vs vehicle 1392 [2] [µM] | POD vs vehicle 1434 [3] [µM] | POD vs vehicle 30145 [4] [µM] | POD vs vehicle 20032 [µM] | POD vs vehicle 30171 [µM] | POD vs vehicle 1535 [µM] | POD vs vehicle 1518 [5] [µM] | POD vs vehicle 11235 [µM] | POD vs vehicle 1392 [6] [µM] | POD vs vehicle 1309 [µM] | POD vs vehicle 1083 [µM] | POD vs vehicle 1516 [µM] | POD vs vehicle 1565 [µM] | POD vs vehicle 20084 [µM] | POD vs vehicle 1368 [µM] | POD vs vehicle 1434 [7] [µM] | POD vs vehicle 1531 [µM] | POD vs vehicle 1118 [µM] | POD vs vehicle 30145 [8] [µM]
1 | NC(O)(C(F)(F)F)C(F)(F)F [2-Aminohexafluoropropan-2-ol] | > 100 | > 100 | > 100 | > 100 | > 100 | > 100 | > 100 | > 100 | 72.8 | > 100 | > 100 | > 100 | > 100 | > 100 | > 100 | > 100 | > 100 | > 100 | > 100 | > 100
2 | O=S(=O)(O)CCC(F)(F)C(F)(F)C(F)(F)C(F)(F)C(F)(F)C(F)(F)C(F)(F)C(F)(F)F [8:2 Fluorotelomer sulfonic acid] | > 100 | > 100 | > 100 | > 100 | > 100 | > 100 | > 100 | > 100 | > 100 | > 100 | > 100 | > 100 | > 100 | > 100 | > 100 | > 100 | > 100 | 16.5 | > 100 | 89.3
3 | O=C(O)C(F)(F)C(F)(F)C(F)(F)C(F)(F)C(F)(F)C(F)(F)C(F)(F)C(F)(F)C(F)(F)C(F)(F)F [Perfluoroundecanoic_acid] | > 100 | > 100 | > 100 | > 100 | > 100 | > 100 | > 100 | > 100 | 95.4 | > 100 | > 100 | > 100 | > 100 | > 100 | > 100 | > 100 | > 100 | > 100 | > 100 | > 100
4 | O=C([O-])C(F)(F)C(F)(F)C(F)(F)C(F)(F)C(F)(F)C(F)(F)C(F)(F)F.[NH4+] [Ammonium_perfluorooctanoate] | > 100 | > 100 | > 100 | > 100 | > 100 | > 100 | > 100 | > 100 | 72.4 | > 100 | > 100 | > 100 | > 100 | > 100 | > 100 | > 100 | > 100 | > 100 | > 100 | > 100
5 | OCC(O)CC(F)(F)C(F)(F)C(F)(F)C(F)(F)C(F)(F)C(F)(F)C(F)(F)C(F)(F)F (stereo not given) [1-(Perfluorofluorooctyl)propane-2,3-diol] | > 100 | > 100 | > 100 | > 100 | > 100 | > 100 | > 100 | > 100 | > 100 | > 100 | > 100 | > 100 | > 100 | > 100 | > 100 | > 100 | > 100 | > 100 | 1.19 | > 100
6 | O=S(=O)(O)C(F)(F)C(F)(F)C(F)(F)C(F)(F)C(F)(F)C(F)(F)C(F)(F)C(F)(F)F [Perfluorooctanesulfonic_acid] | > 100 | > 100 | > 100 | > 100 | > 100 | > 100 | > 100 | > 100 | 12.5 | > 100 | > 100 | > 100 | > 100 | > 100 | > 100 | > 100 | > 100 | > 100 | > 100 | > 100
7 | OCCC(F)(F)C(F)(F)C(F)(F)C(F)(F)C(F)(F)C(F)(F)C(F)(F)C(F)(F)F [8:2 Fluorotelomer alcohol] | > 100 | > 100 | > 100 | > 100 | > 100 | > 100 | > 100 | > 100 | > 100 | > 100 | > 100 | > 100 | > 100 | > 100 | > 100 | > 100 | > 100 | > 100 | > 100 | > 100
8 | O=C(O)C(F)(F)C(F)(F)C(F)(F)OC(F)(C(F)(F)F)C(F)(F)F [Perfluoro-4-isopropoxybutanoic_acid] | > 100 | > 100 | > 100 | > 100 | > 100 | > 100 | > 100 | > 100 | > 100 | > 100 | > 100 | > 100 | > 100 | > 100 | > 100 | > 100 | > 100 | > 100 | > 100 | > 100
9 | O=C(O)C(F)(F)C(F)(F)C(F)(F)C(F)(F)C(F)(F)F [Perfluorohexanoic_acid] | > 100 | > 100 | > 100 | > 100 | > 100 | > 100 | > 100 | > 100 | > 100 | > 100 | > 100 | > 100 | > 100 | > 100 | > 100 | > 100 | > 100 | > 100 | > 100 | > 100
